In PubChem BioAssay AID248 (DTP/NCI, 2004):
“And” between values parts separate entries of the source, which are not always exact repeats. Equal values may be shown once. Toxic doses and inconclusive results are not listed. No stated cut-off is given here; in the data, active means T/C of 150% or more; inactive means T/C below 125%. Peptide text beside a SMILES is read from it. * marks the point of attachment. Cbz = O=C(OCc1ccccc1)*

System: L1210 leukemia ip in BDF1 mice, survival T/C
Test: NCI In Vivo Anticancer Drug Screen. Data for tumor model L1210 Leukemia (intraperitoneal) in B6D2F1 (BDF1) mice
Details: endpoint: mean survival time, higher = longer survival
Procedure, shortened: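 Transplanted-tumor mice were given test agent; controls received vehicle only. Survival readings from the two groups were divided (treated over control).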

[1] = dose: 100.0 mg/kg/injection, schedule: Q04DX002 (ip), vehicle: Klucel (hydroxypropylcellulose) (HPC)
[2] = dose: 200.0 mg/kg/injection, schedule: Q04DX002 (ip), vehicle: Klucel (hydroxypropylcellulose) (HPC)
[3] = dose: 400.0 mg/kg/injection, schedule: Q04DX002 (ip), vehicle: Klucel (hydroxypropylcellulose) (HPC)
[4] = dose: 100.0 mg/kg/injection, schedule: Q01DX009 (ip), vehicle: Klucel (hydroxypropylcellulose) (HPC)
[5] = dose: 200.0 mg/kg/injection, schedule: Q01DX009 (ip), vehicle: Klucel (hydroxypropylcellulose) (HPC)
[6] = dose: 400.0 mg/kg/injection, schedule: Q01DX009 (ip), vehicle: Klucel (hydroxypropylcellulose) (HPC)
[7] = dose: 100.0 mg/kg/injection, schedule: Q01DX001 (ip), vehicle: saline
[8] = dose: 200.0 mg/kg/injection, schedule: Q01DX001 (ip), vehicle: saline
[9] = dose: 400.0 mg/kg/injection, schedule: Q01DX001 (ip), vehicle: saline
[10] = dose: 50.0 mg/kg/injection, schedule: Q01DX001 (ip), vehicle: saline
[11] = dose: 100.0 mg/kg/injection, schedule: Q04DX003 (ip), vehicle: saline
[12] = dose: 200.0 mg/kg/injection, schedule: Q04DX003 (ip), vehicle: saline
[13] = dose: 400.0 mg/kg/injection, schedule: Q04DX003 (ip), vehicle: saline
[14] = dose: 100.0 mg/kg/injection, schedule: Q01DX005 (ip), vehicle: saline
[15] = dose: 200.0 mg/kg/injection, schedule: Q01DX005 (ip), vehicle: saline
[16] = dose: 100.0 mg/kg/injection, schedule: Q01DX009 (ip), vehicle: saline
[17] = dose: 100.0 mg/kg/injection, schedule: Q01DX009 (ip), vehicle: saline with Tween-80
[18] = dose: 200.0 mg/kg/injection, schedule: Q01DX009 (ip), vehicle: saline with Tween-80
[19] = dose: 400.0 mg/kg/injection, schedule: Q01DX009 (ip), vehicle: saline with Tween-80

Measured: T/C

Cc1cccc(OS(C)(=O)=O)c1N(S(C)(=O)=O)S(C)(=O)=O
inactive: dose: 50.0 mg/kg/injection, schedule: Q01DX001 (ip), vehicle: Klucel (hydroxypropylcellulose) (HPC) 97 % of control | dose: 100.0 mg/kg/injection, schedule: Q01DX001 (ip), vehicle: Klucel (hydroxypropylcellulose) (HPC) 108 % of control | dose: 200.0 mg/kg/injection, schedule: Q01DX001 (ip), vehicle: Klucel (hydroxypropylcellulose) (HPC) 95 % of control | dose: 400.0 mg/kg/injection, schedule: Q01DX001 (ip), vehicle: Klucel (hydroxypropylcellulose) (HPC) 95 % of control

COc1ccc(C2=CC(c3ccccc3)C(c3ccccc3)C(=O)N2)cc1 (stereo not drawn)
inactive: dose: 6.25 mg/kg/injection, schedule: Q04DX002 (ip), vehicle: saline with Tween-80 100 % of control | dose: 12.5 mg/kg/injection, schedule: Q04DX002 (ip), vehicle: saline with Tween-80 100 % of control | dose: 25.0 mg/kg/injection, schedule: Q04DX002 (ip), vehicle: saline with Tween-80 92 % of control

O=Cc1c(Cl)n(-c2ccccc2)c2c(C=O)cccc12
inactive: dose: 25.0 mg/kg/injection, schedule: Q04DX003 (ip), vehicle: Klucel (hydroxypropylcellulose) (HPC) 97 % of control | dose: 50.0 mg/kg/injection, schedule: Q04DX003 (ip), vehicle: Klucel (hydroxypropylcellulose) (HPC) 100 % of control | dose: 100.0 mg/kg/injection, schedule: Q04DX003 (ip), vehicle: Klucel (hydroxypropylcellulose) (HPC) 97 % of control

CCOC(=O)/C(=C\c1ccccc1)c1nc2ccccc2[nH]1
inactive: [1] 97 % of control | [2] 101 % of control | [3] 94 % of control

O=[N+]([O-])c1cc(COc2ccc(Cl)c(Cl)c2)ccc1Cl
inactive: [4] 95 % of control | [1] 97 % of control and 98 % of control and 102 % of control | [5] 93 % of control | [2] 96 % of control and 97 % of control and 110 % of control | dose: 200.0 mg/kg/injection, schedule: Q04DX002 (ip), vehicle: saline 102 % of control | [6] 96 % of control | [3] 93 % of control and 99 % of control and 103 % of control | dose: 400.0 mg/kg/injection, schedule: Q04DX002 (ip), vehicle: saline 97 % of control

Clc1ccccc1/C=N/N1CCN(/N=C/c2ccccc2Cl)CC1
inactive: [7] 97 % of control | [8] 95 % of control | [9] 101 % of control

COc1ccc(/C=C2\N=C(c3ccccc3)OC2=O)cc1OC
inactive: [10] 105 % of control | [7] 109 % of control | [11] 96 % of control | [8] 105 % of control | [12] 100 % of control | [9] 100 % of control | [13] 96 % of control

Cn1cnc2c(=O)[nH]nnc21
inactive: [14] 96 % of control | [15] 112 % of control

C1=NCCCN1
inactive: dose: 50.0 mg/kg/injection, schedule: Q01DX009 (ip), vehicle: saline 89 % of control | [16] 94 % of control | [11] 97 % of control | [12] 100 % of control

CC(=NCc1ccccc1)Nc1ccc(NC(=O)c2ccc(C(=O)Nc3ccc(NC(C)=NCc4ccccc4)cc3)cc2)cc1
inactive: dose: 15.0 mg/kg/injection, schedule: Q01DX Z (ip), vehicle: carboxymethylcellulose (CMC) 92 % of control | dose: 30.0 mg/kg/injection, schedule: Q01DX Z (ip), vehicle: carboxymethylcellulose (CMC) 103 % of control | dose: 60.0 mg/kg/injection, schedule: Q01DX Z (ip), vehicle: carboxymethylcellulose (CMC) 95 % of control | dose: 120.0 mg/kg/injection, schedule: Q01DX Z (ip), vehicle: carboxymethylcellulose (CMC) 97 % of control

Nc1ccc(C(=O)N/N=C/c2ccc(N(CCBr)CCBr)cc2)cc1
inactive: dose: 12.5 mg/kg/injection, schedule: Q01DX Z (ip), vehicle: carboxymethylcellulose (CMC) 124 % of control | [7] 98 % of control | [8] 108 % of control

Cc1ccc(S(=O)(=O)NCCN(C2CCCCC2)S(=O)(=O)c2ccc(C)cc2)cc1
inactive: dose: 15.0 mg/kg/injection, schedule: Q01DX001 (ip), vehicle: carboxymethylcellulose (CMC) 96 % of control | dose: 30.0 mg/kg/injection, schedule: Q01DX001 (ip), vehicle: carboxymethylcellulose (CMC) 96 % of control

CC(Cc1ccccc1)NC1=NCCO1 (stereo not drawn)
inactive: [17] 91 % of control | [18] 91 % of control | [19] 89 % of control

Nc1ncnc2c1ncn2C1OC(C(=O)NCC(=O)O)C(O)C1O (stereo not drawn)
inactive: [14] 113 % of control | [15] 100 % of control | dose: 400.0 mg/kg/injection, schedule: Q01DX005 (ip), vehicle: saline 101 % of control

CCOC(=O)/C(C#N)=C\C1(C)CCC(C)=CO1 (stereo not drawn)
inactive: [17] 96 % of control | dose: 100.0 mg/kg/injection, schedule: Q04DX002 (ip), vehicle: saline with Tween-80 92 % of control | [18] 110 % of control | dose: 200.0 mg/kg/injection, schedule: Q04DX002 (ip), vehicle: saline with Tween-80 115 % of control | [19] 100 % of control | dose: 400.0 mg/kg/injection, schedule: Q04DX002 (ip), vehicle: saline with Tween-80 96 % of control

O=C(NC(=S)Nc1ccc(S(=O)(=O)c2ccc(NC(=S)NC(=O)c3ccccc3)cc2)cc1)c1ccccc1
inactive: [4] 102 % of control | [1] 94 % of control | [5] 94 % of control | [2] 94 % of control | [6] 91 % of control | [3] 102 % of control

CC(=O)Nc1ccc(NC(=O)Nc2cccc(C(C)=O)c2)cc1
inactive: [4] 90 % of control | [5] 101 % of control | [6] 101 % of control

O=C(O)c1ccc(/C=N/NC(=S)Nc2cccc3cccnc23)cc1
inactive: [8] 94 % of control | [9] 97 % of control

COc1ccc(N2C(=O)C3C4c5ccccc5C(C3C2=O)[n+]2ccccc24)cc1 (stereo not drawn)
inactive: [11] 97 % of control | [12] 103 % of control

CCOC(=O)CCC(C(=O)OCC)C(=O)OCC
inactive: [17] 86 % of control | dose: 100.0 mg/kg/injection, schedule: Q04DX003 (ip), vehicle: saline with Tween-80 106 % of control | [18] 88 % of control | dose: 200.0 mg/kg/injection, schedule: Q04DX003 (ip), vehicle: saline with Tween-80 103 % of control | [19] 88 % of control | dose: 400.0 mg/kg/injection, schedule: Q04DX003 (ip), vehicle: saline with Tween-80 94 % of control

COC(=O)CNC(=O)CNC(=O)OCc1ccccc1 (Cbz-Gly-Gly-OMe)
inactive: [16] 102 % of control | [11] 102 % of control | dose: 200.0 mg/kg/injection, schedule: Q01DX009 (ip), vehicle: saline 100 % of control | [12] 98 % of control | dose: 400.0 mg/kg/injection, schedule: Q01DX009 (ip), vehicle: saline 102 % of control | [13] 107 % of control

O=Cc1cccc(/C=N/Nc2nnc(N/N=C/c3cccc(C=O)c3)c3ccccc23)c1
inactive: [10] 98 % of control | [7] 98 % of control | [8] 90 % of control | [9] 93 % of control

CCCCCCCCCCCC(=O)Nc1ccc(C(C)C)cc1
inactive: dose: 100.0 mg/kg/injection, schedule: Q01DX001 (ip), vehicle: saline with Tween-80 102 % of control | dose: 200.0 mg/kg/injection, schedule: Q01DX001 (ip), vehicle: saline with Tween-80 87 % of control | dose: 400.0 mg/kg/injection, schedule: Q01DX001 (ip), vehicle: saline with Tween-80 92 % of control

COc1ccc(/C=N\NC(=O)CNC(=O)Nc2cccc([N+](=O)[O-])c2)cc1O
inactive: dose: 50.0 mg/kg/injection, schedule: Q01DX009 (ip), vehicle: saline with Tween-80 93 % of control | [17] 100 % of control | [18] 96 % of control
